Data set [1] in a line: Study ZPS-603 Cohort 4: mood ratings (HAMA, FQ, MADRS) in patients with TRD/TRA. In kind it is in vivo, human. Particulars: study 603 cohort 4 participants (FIG. 7). The protocol: The objective of Cohort 4 was to evaluate efficacy, safety, PK and PD of an extended release ketamine oral formulation in patients with treatment-resistant depression and/or treatment-resistant anxiety (TRD/TRA). […] The design was an open label multiple ascending dose study. The initial dose was 60 mg, and could be escalated by an additional 60 mg 12 hourly, based on assessment of mood symptoms, to a maximum dose of 240 mg, with a total of 7 doses given 12 hourly between 0 and 72 hours. Endpoints included safety, tolerability, ketamine and norketamine PK, and PD (mood ratings including the Fear Questionnaire (FQ; Marks 1979), HAMA and MADRS, and dissociative symptom rating scale scores).
Anxiety Rating Scales: HAMA and FQ: Individual and group mean HAMA and FQ scores by timepoint are shown in FIG. 6 (6A: HAMA; 6B: FQ) There was a consistent trend for both scores to decrease over time, most noticeably in patients with higher baseline scores. […] All seven participants were assessed to be treatment responders (>50% reduction) based on changes in
There was a consistent trend for scores to decrease over time, most noticeably in patients with higher baseline scores. All seven participants were assessed to be treatment responders (>50% reduction) based on change in MADRS scores. […]

The conditions of data set [2]: injected by any route of administration, e.g. Loo 2016; cited from earlier work.
The conditions of data set [3]: subcutaneous dosing, unpublished data.

In the case of `CNC1(c2ccccc2Cl)CCCCC1=O` (stereo not drawn) [Ketamine solution, 2-(2-chlorophenyl)-2-(methylamino) cyclohexan-1-one], in data set [1], the “onset of improvement of anxiety symptoms” value was in the range of 1 to 2 h. Besides, the “duration of marked dissociative symptoms after dosing” value in data set [2] is reported as “up to 60 minutes”. The “Mean Tmax-ketamine” value in data set [3] came to 38.4 min.

(Values after US20260034065A1, “EXTENDED RELEASE PHARMACEUTICAL FORMULATION” (Douglas Pharmaceuticals Ltd., priority 2020, published 2026).)
